# Values joined by “and” are separate entries in the source; they are usually repeats but may differ in a detail not shown here. Identical values can stand only once. “Also recorded” adds a separate entry of the source.
# Columns and labels:
# [1] = system: normal ICR mouse; assay: Oral glucose tolerance test (OGTT), acute hypoglycemic effect of single oral dose; type: in vivo
# Protocol: Acute hypoglycemic effect of single dose through mouth on the normal ICR mouse
# Animal: ICR mouse (8-10 weeks old, sex: male, weight: 25-30 g, purchased from Shanghai SLAC Laboratory Animal Center).
# 1. Two days before the experiment, the food consumption was recorded and the daily food consumption of each animal was calculated;
# 2. The animals fasted overnight (⅓ of daily food consumption was provided, about 2 g);
# 3. The blood glucose was measured on the second day.
# 4. The medicament was administrated through gavage (1 mouse/min). After 6 hours, the blood glucose was measured. Glucose was administrated through gavage according to the body weight (2.5 g/kg). The blood glucose value was monitored at 30 min, 60 min, 90 min, and 120 min after administration.
# [2] = Pharmacokinetics of DC291407 and metabolites in rats (LC-MS/MS); type: in vivo, Sprague-Dawley (SD) rats
# Protocol: The concentration of metabolite M1 (4071001), metabolite M2 (407002) or metabolite M3 (407003) in plasma was determined by LC-MS/MS method after DC291407 was administrated to the rats through gavage and intravenous injection.
# The LC/MS/MS used is triple quadruple LC/MS 6460 from Agilent.
# Six healthy male Sprague-Dawley (SD) rats with the weight of 180-220 g were randomly divided into 2 groups. The rats in each group were administrated with the tested compound by gavage or intravenous injection, respectively.
# The compound was dissolved in 6.7% DMSO/6.7% Tween/86.6% normal saline.
# The rats fasted for 12 h and can drink water ad libitum. 2 h after dosing, the rats were provided with food all together. The time point for collecting blood samples and the sample processing are listed as follows.
# Intragastric administration: 0.25, 0.5, 1.0, 2.0, 3.0, 4.0, 6.0, 8.0 and 24 h after administration;
# Intravenous administration: 5 min, 0.25, 0.5, 1.0, 2.0, 4.0, 6.0, 8.0 and 24 h after administration. At above time point, 0.3 ml venous blood was taken from retrobulbar venous plexus of the rat and loaded into heparinization tube. After centrifuged at 11000 rpm for 5 min, the plasma was separated and frozen at −20° C. in a refrigerator.
# [3] = gavage 20 mg/kg DC291407, average of 3 animals
# [4] = gavage 20 mg/kg DC291407, individual animals, 20 mg/kg
# [5] = gavage 20 mg/kg DC291407, time 0 h, individual animals, BLQ = below lower quantification
# [6] = gavage 20 mg/kg DC291407, time 0.25 h, individual animals, 20 mg/kg
# [7] = gavage 20 mg/kg DC291407, time 0.5 h, individual animals, 20 mg/kg
# [8] = intravenous injection 10 mg/kg DC291407, average of 3 animals
compound,measurement,setting,value
COC(=O)c1cc2nc(N3CCCC(N)C3)n(Cc3ccccc3C#N)c(=O)c2s1 (stereo not drawn) [DC291407],"hypoglycemic ability in vivo, oral glucose tolerance test after multiple single-dose administration","[1]; single administration at multiple doses, FIGS. 11-12",comparable to that of Alogliptin
same,"hypoglycemic ability in vivo, oral glucose tolerance test","[1]; single dose 3 mg/kg by gavage, glucose 2.5 g/kg after 6 hours, FIGS. 7-10",comparable to that of Alogliptin
same,concentration of M2 in plasma samples collected within one hour after administration,[2]; gavage 20 mg/kg DC291407,below 20 ng/ml
same,metabolite M3 in plasma,[2]; gavage 20 mg/kg DC291407,can not be detected
same,prototype compound in plasma,[2]; gavage 20 mg/kg DC291407,can not be detected
same,main component in plasma,"[2]; gavage 20 mg/kg DC291407, 20 mg/kg",mainly contained hydrolysis-metabolite M1; also recorded: mainly contained hydrolysis-metabolite Ml
same,AUC0-t of metabolite M1,[2]; [3],9860 ng·h/mL
same,AUC0-∞ of metabolite M1,[2]; [3],9968 ng·h/mL
same,Cmax of metabolite M1,[2]; [3],6039 ng/mL
same,MRT of metabolite M1,[2]; [3],2.58 h
same,Tmax of metabolite M1,[2]; [3],0.33 h
same,t1/2 of metabolite M1,[2]; [3],5.63 h
same,"F, absolute bioavailability","[2]; gavage 20 mg/kg DC291407, dose-normalized, based on AUC of metabolite M1",22.1%
same,AUC0-t of metabolite M1,[2]; [4],8191 ng·h/mL and 5758 ng·h/mL and 15633 ng·h/mL
same,AUC0-∞ of metabolite M1,[2]; [4],8292 ng·h/mL and 5907 ng·h/mL and 15706 ng·h/mL
same,Cmax of metabolite M1,[2]; [4],4435 ng/mL and 3427 ng/mL and 10255 ng/mL
same,MRT of metabolite M1,[2]; [4],2.86 h and 3.15 h and 1.74 h
same,Tmax of metabolite M1,[2]; [4],0.50 h and 0.25 h
same,t1/2 of metabolite M1,[2]; [4],5.37 h and 7.97 h and 3.55 h
same,Plasma concentration of metabolite M1,[2]; [5],BLQ
same,Plasma concentration of metabolite M2,[2]; [5],BLQ
same,Plasma concentration of metabolite M1,"[2]; gavage 20 mg/kg DC291407, time 0.25 h, average of 3 animals",5712 ng/mL
same,Plasma concentration of metabolite M1,[2]; [6],3454 ng/mL and 3427 ng/mL and 10255 ng/mL
same,Plasma concentration of metabolite M2,[2]; [6],3.87 ng/mL and 3.24 ng/mL and 16.3 ng/mL
same,Plasma concentration of metabolite M1,"[2]; gavage 20 mg/kg DC291407, time 0.5 h, average of 3 animals",5975 ng/mL
same,Plasma concentration of metabolite M1,[2]; [7],4435 ng/mL and 3404 ng/mL and 10087 ng/mL
same,Plasma concentration of metabolite M2,[2]; [7],4.79 ng/mL and 3.94 ng/mL and 16.9 ng/mL
same,Plasma concentration of metabolite M1,"[2]; gavage 20 mg/kg DC291407, time 1.0 h, average of 3 animals",3962 ng/mL
same,Plasma concentration of metabolite M1,"[2]; gavage 20 mg/kg DC291407, time 1.0 h, individual animals, 20 mg/kg",3326 ng/mL and 1771 ng/mL and 6789 ng/mL
same,Plasma concentration of metabolite M2,"[2]; gavage 20 mg/kg DC291407, time 1.0 h, individual animals, BLQ = below lower quantification, 20 mg/kg",3.88 ng/mL and BLQ and 10.7 ng/mL
same,Plasma concentration of metabolite M1,"[2]; gavage 20 mg/kg DC291407, time 2.0 h, average of 3 animals",1117 ng/mL
same,Plasma concentration of metabolite M1,"[2]; gavage 20 mg/kg DC291407, time 2.0 h, individual animals, 20 mg/kg",690 ng/mL and 1091 ng/mL and 1569 ng/mL
same,Plasma concentration of metabolite M2,"[2]; gavage 20 mg/kg DC291407, time 2.0 h, individual animals, BLQ = below lower quantification",BLQ
same,Plasma concentration of metabolite M1,"[2]; gavage 20 mg/kg DC291407, time 3.0 h, average of 3 animals",549 ng/mL
same,Plasma concentration of metabolite M1,"[2]; gavage 20 mg/kg DC291407, time 3.0 h, individual animals, 20 mg/kg",476 ng/mL and 299 ng/mL and 872 ng/mL
same,Plasma concentration of metabolite M2,"[2]; gavage 20 mg/kg DC291407, time 3.0 h, individual animals, BLQ = below lower quantification",BLQ
same,Plasma concentration of metabolite M1,"[2]; gavage 20 mg/kg DC291407, time 4.0 h, average of 3 animals",390 ng/mL
same,Plasma concentration of metabolite M1,"[2]; gavage 20 mg/kg DC291407, time 4.0 h, individual animals, 20 mg/kg",500 ng/mL and 105 ng/mL and 565 ng/mL
same,Plasma concentration of metabolite M2,"[2]; gavage 20 mg/kg DC291407, time 4.0 h, individual animals, BLQ = below lower quantification",BLQ
same,Plasma concentration of metabolite M1,"[2]; gavage 20 mg/kg DC291407, time 6.0 h, average of 3 animals",123 ng/mL
same,Plasma concentration of metabolite M1,"[2]; gavage 20 mg/kg DC291407, time 6.0 h, individual animals, 20 mg/kg",138 ng/mL and 57.3 ng/mL and 173 ng/mL
same,Plasma concentration of metabolite M2,"[2]; gavage 20 mg/kg DC291407, time 6.0 h, individual animals, BLQ = below lower quantification",BLQ
same,Plasma concentration of metabolite M1,"[2]; gavage 20 mg/kg DC291407, time 8.0 h, average of 3 animals",68.5 ng/mL
same,Plasma concentration of metabolite M1,"[2]; gavage 20 mg/kg DC291407, time 8.0 h, individual animals, 20 mg/kg",97.1 ng/mL and 58.9 ng/mL and 49.5 ng/mL
same,Plasma concentration of metabolite M2,"[2]; gavage 20 mg/kg DC291407, time 8.0 h, individual animals, BLQ = below lower quantification",BLQ
same,Plasma concentration of metabolite M1,"[2]; gavage 20 mg/kg DC291407, time 24 h, average of 3 animals",13.4 ng/mL
same,Plasma concentration of metabolite M1,"[2]; gavage 20 mg/kg DC291407, time 24 h, individual animals, 20 mg/kg",13.0 ng/mL (2×) and 14.3 ng/mL
same,Plasma concentration of metabolite M2,"[2]; gavage 20 mg/kg DC291407, time 24 h, individual animals, BLQ = below lower quantification",BLQ
same,main component in plasma,[2]; intravenous 10 mg/kg DC291407,mainly contained hydrolysis-metabolite M1
same,metabolite M2 in plasma,[2]; intravenous 10 mg/kg DC291407,relatively low concentration
same,prototype compound in plasma,[2]; intravenous 10 mg/kg DC291407,relatively low concentration
same,metabolite M3 in plasma,"[2]; intravenous 10 mg/kg DC291407, 10 mg/kg",can not be detected; also recorded: no metabolite M3 can be detected
same,AUC0-t of metabolite M1,[2]; [8],22274 ng·h/mL
same,AUC0-t of prototype drug,[2]; [8],36.0 ng·h/mL
same,AUC0-∞ of metabolite M1,[2]; [8],22517 ng·h/mL
same,AUC0-∞ of prototype drug,[2]; [8],39.9 ng·h/mL
same,CL of prototype drug,[2]; [8],260 L/h/kg
same,Cmax of metabolite M1,[2]; [8],45028 ng/mL
same,MRT of metabolite M1,[2]; [8],1.13 h
same,MRT of prototype drug,[2]; [8],0.78 h

# From patent US9045491B2, “Thienyl [3,2-D] pyrimidin-4-one compounds, preparation method, pharmaceutical compositions and use thereof” (SHANGHAI INSTITUTE OF MATERIA MEDICA, CHINESE ACADEMY OF …, priority 2011, dated 2015)
